# According to PMC2869246 (Antiviral research, 2010):
# “Also recorded” adds a separate entry of the source. Like-named read-outs stand apart in the source and are kept apart here.
# Key:
# [1] = ref Reddy et al., 2008; cited from earlier work
# [2] = system: HBV; conditions: cited from earlier work; for anti-HBV activity: unpublished results
# [3] = system: HBV surface antigen; conditions: Hep3B cell line with integrated S gene coding region; ref Lin et al., 2003; cited from earlier work
# [4] = system: HBV; assay: HBV antiviral assay in HepG2.2.15 cells; format: cell-based, hepatitis B virus; conditions: for effect of addition of 10uM mevalonate on anti-HBV effect: 10uM mevalonate added
# [5] = Cytotoxicity by neutral red dye uptake in HepG2.2.15 cultures; format: cell-based; conditions: human, HepG2.2.15 cells
# [6] = system: HepG2.2.15; assay: as above; format: cell-based; conditions: Table 2; monotherapy; neutral red uptake 24 hours after last treatment
# [7] = Hepatitis B virus, HepG2.2.15, Table 2 (separate experiment), monotherapy
# [8] = Table 2 (separate experiment), monotherapy
structure (smiles),measurement,setting,value
"Nc1ncnc2c1ncn2CCOCP(=O)(O)O [ADV, adefovir]",liver/serum ratios,[1],0.38
CC[C@H](C)C(=O)O[C@H]1C[C@@H](C)C=C2C=C[C@H](C)[C@H](CC[C@@H]3C[C@@H](O)CC(=O)O3)[C@H]21 [lovastatin],anti-HBV activity (HBV virions in cell culture),"[2]; ref Lin et al., 2003",unable to make other statins work against HBV; also recorded: could not demonstrate reduction of HBV virions
same,in vitro production of surface antigen inhibited,[3],60%
"CCC(C)(C)C(=O)O[C@H]1C[C@@H](C)C=C2C=C[C@H](C)[C@H](CC[C@@H]3C[C@@H](O)CC(=O)O3)[C@H]21 [SIM, simvastatin]",effect of addition of 10uM mevalonate on anti-HBV effect,[4],abolished the anti-HBV effect; also recorded: abolished the anti-HBV effectiveness
same,EC50,[4]; [7],2.8 ± 0.3 µM
same,EC90,[4]; [7],8.1 ± 0.7 µM
same,ED90,"[4]; SIM alone, cell culture",8.6 µM
same,CC50 at 9 days,[5],> 300 µM
CC[C@H](C)C(=O)O[C@H]1C[C@H](O)C=C2C=C[C@H](C)[C@H](CC[C@@H](O)C[C@@H](O)CC(=O)O)[C@H]21 [pravastatin],anti-HBV activity,[2]; ref Bader,unable to make other statins work against HBV
"Nc1ccn([C@@H]2CS[C@H](CO)O2)c(=O)n1 [LMV, lamivudine]",effect of addition of 10uM mevalonate on anti-HBV effect,[4],did not affect the anti-HBV effectiveness; also recorded: nor did it reduce the anti-HBV effectiveness
same,EC50,[4]; [7],0.048 ± 0.005 µM
same,EC90,[4]; [7],0.146 ± 0.017 µM
same,CC50 at 9 days,[5],2320 ± 102 µM
CC(O)(CCO)CC(=O)O (stereo not drawn) [Mevalonate],EC50,[4]; [8],> 10 µM
same,EC90,[4]; [8],> 10 µM
same,anti-HBV effect,[4]; monotherapy,did not display an anti-HBV effect
same,CC50,[6],> 10 µM
CC(C)n1c(/C=C/C(O)CC(O)CC(=O)O)c(-c2ccc(F)cc2)c2ccccc21 (stereo not drawn) [fluvastatin],anti-HBV activity,[2]; ref Korba,unable to make other statins work against HBV
